Reference: US11053204B2, “Pyrimidinyloxy benzene derivatives as herbicides” (FMC Corporation, priority 2015, dated 2021)

Columns and labels:
Assay type in all cases: in vivo
[1] = test system: blackgrass (Alopecurus myosuroides); assay: Test C preemergence, plant response rating; conditions: Preemergence
Method in brief: (§1)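 After sowing in loam–sand blend or silt loam, pots were sprayed preemergence; separately grown 1- to 4-leaf plants were sprayed postemergence. Following 13 to 15 d under greenhouse conditions, injury was rated visually on a 0 to 100 scale.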

corn (Zea mays) [2] = assay: Test C preemergence, plant response rating; conditions: Preemergence
Method in brief: as §1

[3] = test system: crabgrass, large (large crabgrass, Digitaria sanguinalis); assay: Test C preemergence, plant response rating; conditions: Preemergence
Method in brief: as §1

[4] = test system: foxtail, giant (giant foxtail, Setaria faberii); assay: Test C preemergence, plant response rating; conditions: Preemergence
Method in brief: as §1

[5] = test system: lambsquarters (Chenopodium album); assay: Test C preemergence, plant response rating; conditions: Preemergence
Method in brief: as §1

[6] = test system: morningglory (Ipomoea coccinea); assay: Test C preemergence, plant response rating; conditions: Preemergence
Method in brief: as §1

[7] = test system: nutsedge, yellow (yellow nutsedge, Cyperus esculentus); assay: Test C preemergence, plant response rating; conditions: Preemergence
Method in brief: as §1

[8] = test system: oilseed rape (Brassica napus); assay: Test C preemergence, plant response rating; conditions: Preemergence
Method in brief: as §1

[9] = test system: ryegrass, Italian (Italian ryegrass, Lolium multiflorum); assay: Test C preemergence, plant response rating; conditions: Preemergence
Method in brief: as §1

soybean (Glycine max) [10] = assay: Test C preemergence, plant response rating; conditions: Preemergence
Method in brief: as §1

[11] = test system: velvetleaf (Abutilon theophrasti); assay: Test C preemergence, plant response rating; conditions: Preemergence
Method in brief: as §1

[12] = test system: waterhemp (common waterhemp, Amaranthus rudis); assay: Test C preemergence, plant response rating; conditions: Preemergence
Method in brief: as §1

[13] = test system: wheat (winter wheat, Triticum aestivum); assay: Test C preemergence, plant response rating; conditions: Preemergence
Method in brief: as §1

corn (Zea mays) [14] = assay: Test C postemergence, plant response rating; conditions: for Corn plant response rating: scale 0 to 100 (0 no effect, 100 complete control)
Method in brief: as §1

[15] = test system: crabgrass, large (large crabgrass, Digitaria sanguinalis); assay: Test C postemergence, plant response rating; conditions: for Crabgrass, Large plant response rating: scale 0 to 100 (0 no effect, 100 complete control)
Method in brief: as §1

[16] = test system: foxtail, giant (giant foxtail, Setaria faberii); assay: Test C postemergence, plant response rating; conditions: for Foxtail, Giant plant response rating: scale 0 to 100 (0 no effect, 100 complete control)
Method in brief: as §1

[17] = test system: galium (catchweed bedstraw, Galium aparine); assay: Test C postemergence, plant response rating; conditions: for Galium plant response rating: scale 0 to 100 (0 no effect, 100 complete control)
Method in brief: as §1

kochia (Kochia scoparia) = assay: Test C postemergence, plant response rating; conditions: for Kochia plant response rating: scale 0 to 100 (0 no effect, 100 complete control)
Method in brief: as §1

[18] = test system: oilseed rape (Brassica napus); assay: Test C postemergence, plant response rating; conditions: for Oilseed Rape plant response rating: scale 0 to 100 (0 no effect, 100 complete control)
Method in brief: as §1

soybean (Glycine max) [19] = assay: Test C postemergence, plant response rating; conditions: for Soybean plant response rating: scale 0 to 100 (0 no effect, 100 complete control)
Method in brief: as §1

[20] = test system: waterhemp (common waterhemp, Amaranthus rudis); assay: Test C postemergence, plant response rating
Method in brief: as §1

## O=C(CCC(F)(F)F)c1c(Br)cccc1Oc1ncc(Cl)cn1 [Compound 92]
[1]; 125 g ai/ha, scale of 0 to 100
  Plant response rating, Blackgrass: 100
[1]; 16 g ai/ha, scale 0 to 100
  Plant response rating, Blackgrass: 45
[1]; 31 g ai/ha, scale 0 to 100
  Plant response rating, Blackgrass: 80
[1]; 62 g ai/ha, scale 0 to 100
  Plant response rating, Blackgrass: 100
Corn (Zea mays) [2]; 125 g ai/ha, scale of 0 to 100
  Plant response rating, Corn: 40
Corn (Zea mays) [2]; 16 g ai/ha, scale 0 to 100
  Plant response rating, Corn: 0
Corn (Zea mays) [2]; 31 g ai/ha, scale 0 to 100
  Plant response rating, Corn: 15
Corn (Zea mays) [2]; 62 g ai/ha, scale 0 to 100
  Plant response rating, Corn: 35
[3]; 125 g ai/ha, scale of 0 to 100
  Plant response rating, Crabgrass, Large: 100
[3]; 16 g ai/ha, scale 0 to 100
  Plant response rating, Crabgrass, Large: 100
[3]; 31 g ai/ha, scale 0 to 100
  Plant response rating, Crabgrass, Large: 100
[3]; 62 g ai/ha, scale 0 to 100
  Plant response rating, Crabgrass, Large: 100
[4]; 125 g ai/ha, scale of 0 to 100
  Plant response rating, Foxtail, Giant: 100
[4]; 31 g ai/ha, scale 0 to 100
  Plant response rating, Foxtail, Giant: 100
[4]; 62 g ai/ha, scale 0 to 100
  Plant response rating, Foxtail, Giant: 100
[5]; 125 g ai/ha, scale of 0 to 100
  Plant response rating, Lambsquarters: 100
[5]; 31 g ai/ha, scale 0 to 100
  Plant response rating, Lambsquarters: 100
[5]; 62 g ai/ha, scale 0 to 100
  Plant response rating, Lambsquarters: 100
[6]; 125 g ai/ha, scale of 0 to 100
  Plant response rating, Morningglory: 70
[6]; 31 g ai/ha, scale 0 to 100
  Plant response rating, Morningglory: 40
[6]; 62 g ai/ha, scale 0 to 100
  Plant response rating, Morningglory: 60
[7]; 125 g ai/ha, scale of 0 to 100
  Plant response rating, Nutsedge, Yellow: 50
[7]; 31 g ai/ha, scale 0 to 100
  Plant response rating, Nutsedge, Yellow: 5
[7]; 62 g ai/ha, scale 0 to 100
  Plant response rating, Nutsedge, Yellow: 5
[8]; 125 g ai/ha, scale of 0 to 100
  Plant response rating, Oilseed Rape: 100
[8]; 31 g ai/ha, scale 0 to 100
  Plant response rating, Oilseed Rape: 100
[8]; 62 g ai/ha, scale 0 to 100
  Plant response rating, Oilseed Rape: 100
[9]; 125 g ai/ha, scale of 0 to 100
  Plant response rating, Ryegrass, Italian: 95
[9]; 31 g ai/ha, scale 0 to 100
  Plant response rating, Ryegrass, Italian: 5
[9]; 62 g ai/ha, scale 0 to 100
  Plant response rating, Ryegrass, Italian: 55
Soybean (Glycine max) [10]; 125 g ai/ha, scale of 0 to 100
  Plant response rating, Soybean: 60
Soybean (Glycine max) [10]; 31 g ai/ha, scale 0 to 100
  Plant response rating, Soybean: 40
Soybean (Glycine max) [10]; 62 g ai/ha, scale 0 to 100
  Plant response rating, Soybean: 70
[11]; 125 g ai/ha, scale of 0 to 100
  Plant response rating, Velvetleaf: 100
[11]; 31 g ai/ha, scale 0 to 100
  Plant response rating, Velvetleaf: 75
[11]; 62 g ai/ha, scale 0 to 100
  Plant response rating, Velvetleaf: 100
[12]; 125 g ai/ha, scale of 0 to 100
  Plant response rating, Waterhemp: 100
[12]; 31 g ai/ha, scale 0 to 100
  Plant response rating, Waterhemp: 100
[12]; 62 g ai/ha, scale 0 to 100
  Plant response rating, Waterhemp: 100
[13]; 125 g ai/ha, scale of 0 to 100
  Plant response rating, Wheat: 20
[13]; 31 g ai/ha, scale 0 to 100
  Plant response rating, Wheat: 0
[13]; 62 g ai/ha, scale 0 to 100
  Plant response rating, Wheat: 0
Corn (Zea mays) [14]; 16 g ai/ha, scale of 0 to 100
  Plant response rating, Corn: 10
Corn (Zea mays) [14]; 31 g ai/ha, scale 0 to 100
  Plant response rating, Corn: 20
Corn (Zea mays) [14]; 62 g ai/ha
  Corn plant response rating: 15
Corn (Zea mays) [14]; 125 g ai/ha
  Corn plant response rating: 20
[15]; 16 g ai/ha, scale of 0 to 100
  Plant response rating, Crabgrass, Large: 20
[15]; 31 g ai/ha, scale 0 to 100
  Plant response rating, Crabgrass, Large: 10
[15]; 62 g ai/ha
  Crabgrass, Large plant response rating: 25
[15]; 125 g ai/ha
  Crabgrass, Large plant response rating: 35
[16]; 16 g ai/ha, scale of 0 to 100
  Plant response rating, Foxtail, Giant: 10
[16]; 31 g ai/ha, scale 0 to 100
  Plant response rating, Foxtail, Giant: 20
[16]; 62 g ai/ha
  Foxtail, Giant plant response rating: 25
[16]; 125 g ai/ha
  Foxtail, Giant plant response rating: 50
[17]; 16 g ai/ha, scale of 0 to 100
  Plant response rating, Galium: 80
[17]; 31 g ai/ha, scale 0 to 100
  Plant response rating, Galium: 85
[17]; 62 g ai/ha
  Galium plant response rating: 100
[17]; 125 g ai/ha
  Galium plant response rating: 100
Kochia (Kochia scoparia); 16 g ai/ha, scale of 0 to 100
  Plant response rating, Kochia: 100
Kochia (Kochia scoparia); 31 g ai/ha, scale 0 to 100
  Plant response rating, Kochia: 100
Kochia (Kochia scoparia); 62 g ai/ha
  Kochia plant response rating: 100
Kochia (Kochia scoparia); 125 g ai/ha
  Kochia plant response rating: 100
[18]; 16 g ai/ha, scale of 0 to 100
  Plant response rating, Oilseed Rape: 5
[18]; 31 g ai/ha, scale 0 to 100
  Plant response rating, Oilseed Rape: 50
[18]; 62 g ai/ha
  Oilseed Rape plant response rating: 50
[18]; 125 g ai/ha
  Oilseed Rape plant response rating: 70
Soybean (Glycine max) [19]; 16 g ai/ha, scale of 0 to 100
  Plant response rating, Soybean: 30
Soybean (Glycine max) [19]; 31 g ai/ha, scale 0 to 100
  Plant response rating, Soybean: 40
Soybean (Glycine max) [19]; 62 g ai/ha
  Soybean plant response rating: 70
Soybean (Glycine max) [19]; 125 g ai/ha
  Soybean plant response rating: 75
[20]; 16 g ai/ha, scale of 0 to 100
  Plant response rating, Waterhemp: 80
[20]; 31 g ai/ha, scale 0 to 100
  Plant response rating, Waterhemp: 85
[20]; 125 g ai/ha, scale 0 to 100 (0 no effect, 100 complete control)
  Waterhemp plant response rating: 100
